What was measured:
Cruzipain [1] = target: T1, Cruzipain (Trypanosoma cruzi, UniProt P25779); assay: Inhibition of recombinant Trypanosoma cruzi CRZ using Z-Phe-Arg-aminomethylcoumarin as substrate preincubated for 10 mins followed by substrate addition by fluorimetry
[2] = Cytotoxicity against mouse C2C12 cells at 10 uM relative to control; type: toxicity, cell-based; details: read-out: INH
Trypanosoma brucei [3] = assay: Antitrypanosomal activity against Trypanosoma brucei trypomastigotes assessed as parasite growth inhibition at 50 uM incubated for 72 hrs by resazurin dye based assay relative to control; type: functional
[4] = Cytotoxicity against HEK293 cells at 50 uM incubated for 48 hrs by resazurin reduction assay relative to control; type: toxicity, cell-based; details: human, read-out: INH
[5] = Cytotoxicity against HEK293 cells incubated for 48 hrs by resazurin reduction assay; type: toxicity, cell-based; details: human
[6] = target: Cruzipain (Trypanosoma cruzi) (UniProt P25779); assay: Inhibition of recombinant Trypanosoma cruzi CRZ using Z-Phe-Arg-aminomethylcoumarin as substrate at 50 uM preincubated for 10 mins followed by substrate addition by fluorimetry relative to control
Trypanosoma cruzi [7] = assay: Antitrypanosomal activity against intracellular Trypanosoma cruzi amastigotes infected in mouse C2C12 cells at 10 uM incubated for 48 hrs by DAPI staining based analysis relative to control; type: functional
Trypanosoma brucei [8] = assay: Inhibition of recombinant Trypanosoma brucei CATL using Z-Phe-Arg-aminomethylcoumarin as substrate at 50 uM preincubated for 10 mins followed by substrate addition by fluorimetry relative to control
[9] = Inhibition of recombinant Trypanosoma brucei CATL using Z-Phe-Arg-aminomethylcoumarin as substrate preincubated for 10 mins followed by substrate addition by fluorimetry
Trypanosoma brucei [10] = assay: Antitrypanosomal activity against Trypanosoma brucei trypomastigotes assessed as parasite growth inhibition incubated for 72 hrs by resazurin dye based assay; type: functional, organism-based
[11] = Selectivity index, ratio of CC50 for cytotoxicity against HEK293 cells to EC50 for Trypanosoma brucei trypomastigotes; type: toxicity, cell-based; details: human, read-out: Ratio CC50/EC50
Cruzipain [12] = target: T1, Cruzipain; assay: Inhibition of Trypanosoma cruzi CRZ
[13] = Inhibition of Trypanosoma brucei CATL
Trypanosoma cruzi [14] = assay: Antitrypanosomal activity against Trypanosoma cruzi amastigotes infected in cell model; type: functional, organism-based
Trypanosoma brucei [15] = assay: Potency index, ratio of FN-27 IC50 to test compound IC50 recombinant Trypanosoma brucei CATL
[16] = target: Cruzipain (Trypanosoma cruzi) (UniProt P25779); assay: Potency index, ratio of FN-27 IC50 to test compound IC50 recombinant Trypanosoma cruzi CRZ

Cruzipain (Trypanosoma cruzi), sequence (P25779 123-467 limits assumed): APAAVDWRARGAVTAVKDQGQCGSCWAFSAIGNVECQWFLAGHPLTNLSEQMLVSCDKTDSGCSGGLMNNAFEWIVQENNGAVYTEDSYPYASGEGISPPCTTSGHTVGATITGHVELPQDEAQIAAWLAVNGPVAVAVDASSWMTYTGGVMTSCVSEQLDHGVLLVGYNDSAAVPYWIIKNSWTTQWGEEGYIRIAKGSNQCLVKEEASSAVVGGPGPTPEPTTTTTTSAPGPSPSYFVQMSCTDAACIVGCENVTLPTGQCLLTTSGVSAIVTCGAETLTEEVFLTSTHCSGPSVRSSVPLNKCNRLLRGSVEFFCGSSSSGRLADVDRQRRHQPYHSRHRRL
T1 sequence (P25779 whole entry): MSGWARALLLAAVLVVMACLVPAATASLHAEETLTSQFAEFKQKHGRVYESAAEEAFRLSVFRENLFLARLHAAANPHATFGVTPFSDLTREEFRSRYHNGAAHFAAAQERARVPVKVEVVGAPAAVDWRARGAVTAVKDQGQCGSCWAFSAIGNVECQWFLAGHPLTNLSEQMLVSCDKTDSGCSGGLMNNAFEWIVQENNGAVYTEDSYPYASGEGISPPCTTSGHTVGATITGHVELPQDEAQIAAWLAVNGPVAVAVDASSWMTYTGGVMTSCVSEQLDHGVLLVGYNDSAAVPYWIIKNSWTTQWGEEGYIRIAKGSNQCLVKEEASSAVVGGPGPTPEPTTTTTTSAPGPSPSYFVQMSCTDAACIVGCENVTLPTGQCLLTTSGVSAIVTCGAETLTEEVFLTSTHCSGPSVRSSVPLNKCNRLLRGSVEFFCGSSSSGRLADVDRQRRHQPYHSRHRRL

| SMILES | cytotoxicity at 10 µM [2] [%] | inhibition at 50 µM (Trypanosoma brucei [3]) [%] | cytotoxicity at 48 h, 50 µM [4] [%] | inhibition [6] [%] | inhibition at 10 µM (Trypanosoma cruzi [7]) [%] | inhibition (Trypanosoma brucei [8]) [%] | also measured |
| --- | --- | --- | --- | --- | --- | --- | --- |
| CCN(CC)c1ccc2cc(/C(C)=N/NC(N)=S)c(=O)oc2c1 | 11 | 56 | 80 | 30 | 44 | 77 | IC50 (Cruzipain [1]): 46 nM; CC50 at 48 h [5]: 42.7 µM |
| O=C(NCCc1c[nH]c2ccccc12)c1cc2ccccc2oc1=O | 16 | 63 | 76 | 10 | 24 | 25 | CC50 at 48 h [5]: 19.6 µM |
| COc1cc(OC)c2cc(C(=O)N3CCN(c4ccccc4)CC3)c(=O)oc2c1 | 0 | 15 | 18 | 3 | 2 | 24 | – |
| CC(C)C[C@H](NC(=O)[C@H](Cc1ccccc1)NC(=O)c1cnccn1)B(O)O [BORTEZOMIB] | – | – | 100 | – | – | – | – |
| O=C(NCCc1c[nH]c2ccccc12)c1cc2cc(Cl)cc(Cl)c2oc1=O | 0 | 44 | 17 | 22 | 23 | 9 | – |
| C/C(=N\NC(N)=S)c1cc2cc(Br)ccc2oc1=O | 12 | 71 | 13 | 92 | 57 | 87 | IC50 (Cruzipain [1]): 145 nM; IC50 [9]: 698 nM; CC50 at 48 h [5]: 52.3 µM; EC50 (Trypanosoma brucei [10]): 43.6 µM; selectivity ratio [11]: ~1.2 |
| COc1cccc2cc(/C(C)=N/NC(N)=S)c(=O)oc12 | – | – | – | – | – | – | IC50 (Cruzipain [12]): 14.4 µM; IC50 [13]: 2000 nM; EC50 (Trypanosoma cruzi [14]): 5.5 µM |
| CC(C)C[C@H](NC(=O)[C@H]1O[C@@H]1C(=O)O)C(=O)NCCCCN=C(N)N | – | – | – | – | – | 99 | – |
| C/C(=N\NC(N)=S)c1cc2ccc(C)cc2oc1=O | 0 | 23 | 10 | 98 | 52 | 97 | IC50 (Cruzipain [1]): 200 nM; IC50 [9]: 22 nM; CC50 at 48 h [5]: 114 µM; Ratio IC50 (Trypanosoma brucei [15]): 92; Ratio IC50 [16]: 72 |
| COc1cc(OC)c2cc(C(=O)NCCc3c[nH]c4ccccc34)c(=O)oc2c1 | 0 | 43 | 31 | 25 | 13 | 15 | – |
| O=C(c1cc2cc(I)ccc2oc1=O)N1CCN(c2ccccc2)CC1 | 0 | 12 | 13 | 2 | 5 | 19 | – |
| O=C(c1cc2cc(Cl)cc(Cl)c2oc1=O)N1CCN(c2ccccc2)CC1 | 5 | 24 | 12 | 6 | 25 | 12 | – |
| O=C(NCc1ccccc1)c1cc2ccccc2oc1=O | 10 | 38 | 3 | 1 | 6 | 7 | – |
| COc1cc(OC)c2cc(C(=O)NCc3ccccc3)c(=O)oc2c1 | 0 | 3 | 23 | – | 17 | – | – |
| O=C(Nc1ccccc1)c1cc2ccccc2oc1=O | 1 | 52 | 0 | 9 | 3 | 17 | – |
| O=C(NCCc1c[nH]c2ccccc12)c1cc2cc(I)ccc2oc1=O | 1 | 39 | 41 | 7 | 7 | 18 | – |
| O=C(c1cc2ccccc2oc1=O)N1CCN(c2ccccc2)CC1 | 0 | 17 | 11 | 48 | 8 | 34 | – |
| N=C(N)c1ccc(OCCCCCOc2ccc(C(=N)N)cc2)cc1 [PENTAMIDINE] | – | 100 | – | – | – | – | – |
| COc1ccc2cc(C(=O)NCCc3c[nH]c4ccccc34)c(=O)oc2c1 | 0 | 59 | 81 | – | 27 | – | CC50 at 48 h [5]: 32.1 µM |
| COc1ccc2cc(C(=O)NCc3ccccc3)c(=O)oc2c1 | 0 | 45 | 1 | – | 21 | – | – |
| O=C(Cn1ccnc1[N+](=O)[O-])NCc1ccccc1 [BENZNIDAZOLE] | 0 | – | – | – | 77 | – | – |
| C/C(=N\NC(N)=S)c1cc2ccccc2oc1=O | 0 | 40 | 11 | 97 | 49 | 88 | IC50 (Cruzipain [1]): 68 nM; IC50 [9]: 73 nM |
| COc1ccc2cc(C(=O)N3CCN(c4ccccc4)CC3)c(=O)oc2c1 | 1 | 43 | 11 | 5 | 27 | 29 | – |

— ChEMBL document CHEMBL6078696, “Nanomolar activity of coumarin-3-thiosemicarbazones targeting Trypanosoma cruzi cruzain and the T. brucei cathepsin L-like protease” (Eur J Med Chem, 2025)
